≈ marks a conversion by molar mass, not a printed value. Where only a bound is given, the exact number is not on record here.

One assay has as its system E. coli. The experiment in a line: Minimal inhibitory concentration (MIC) of powders against E. coli. The assay is classed as cell-based, Escherichia coli. The note with it: * = tested chemical formed precipitate in TSB medium. On the procedure: (§1) The minimal inhibitory concentration (MIC) of ZIF-L powders synthesized from a solution with a 2-Me-Im:Zn ratio of 7:1 was tested against E. coli, S. aureus and C. albicans. The same test was conducted for ZIF-8 powders, 2-Me-Im alone and Zn(NO3)2.4H2O alone. The MIC values in mg/mL are tabulated below.

The subject of a further assay is S. aureus. The experiment in a line: Minimal inhibitory concentration (MIC) of powders against S. aureus. The assay is classed as cell-based, Staphylococcus aureus. The settings on record: * = tested chemical formed precipitate in TSB medium. The method, then:
as §1

A further assay has as its system C. albicans. The experiment in a line: Minimal inhibitory concentration (MIC) of powders against C. albicans. The assay is classed as cell-based, Candida albicans. The method, then: as §1

For `O.O.O.O.O=[N+]([O-])[O-].O=[N+]([O-])[O-].[Zn+2]` [Zn(NO3)2•4H2O, Zn(NO3)2.4H2O], the “MIC, E. coli” value in the assay on E. coli was 3.1* mg/mL. In addition, the “MIC, S. aureus” value with S. aureus is on record as >50* mg/mL. The “MIC, C. albicans” value in the assay with C. albicans was 0.8 mg/mL.

In the case of `Cc1ncc[nH]1` [2-Me-Im, 2-methylimidazole], the MIC – broadly, the lowest concentration found to suppress growth – in the assay on E. coli (Escherichia coli) was 12.5 mg/mL (≈ 152 mM); against S. aureus (Staphylococcus aureus) it was 25 mg/mL (≈ 304 mM); against C. albicans (Candida albicans), 6.2 mg/mL (≈ 75.5 mM).
